Results published in ChEMBL document CHEMBL4808162, “Constraining the Side Chain of C-Terminal Amino Acids in Apelin-13 Greatly Increases Affinity, Modulates Signaling, and Improves the Pharmacokinetic Profile” (J Med Chem, 2021).

What was measured:
Apelin receptor [1] = molecular target: T1, Apelin receptor (Homo sapiens, UniProt P35414); assay: Displacement of [125I] [NIe75,Tyr77]Pyr-apelin-13 from YFP-tagged human APJ receptor expressed in HEK293 cells incubated for 1 hr by gamma counting analysis; type: cell-based
T1 sequence (P35414 whole entry): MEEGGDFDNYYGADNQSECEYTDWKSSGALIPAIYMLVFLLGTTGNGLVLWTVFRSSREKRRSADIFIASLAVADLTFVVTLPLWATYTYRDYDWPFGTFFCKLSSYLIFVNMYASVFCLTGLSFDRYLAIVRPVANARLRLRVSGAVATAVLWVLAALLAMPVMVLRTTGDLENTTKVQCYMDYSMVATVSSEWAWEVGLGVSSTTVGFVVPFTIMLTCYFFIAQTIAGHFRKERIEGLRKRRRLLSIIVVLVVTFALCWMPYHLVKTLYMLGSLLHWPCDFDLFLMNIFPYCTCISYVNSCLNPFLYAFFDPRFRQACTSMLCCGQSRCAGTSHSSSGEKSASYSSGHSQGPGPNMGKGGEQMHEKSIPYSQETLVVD

Apelin receptor [2] = molecular target: T1, Apelin receptor; assay: Agonist activity at human APJ receptor expressed in HEK293T cells co-expressing PDZ-Rho-Gef-RLucll and rGFP-CAAX assessed as induction of recruitment of Galpha12 to cell membrane using coelenterazine luciferase substrate incubated for 5 mins by BRET assay; type: functional, cell-based, HEK293
Apelin receptor [3] = molecular target: T1, Apelin receptor; assay: Agonist activity at human APJ receptor expressed in HEK293T cells co-expressing Galphai1 RlucII assessed as dissociation of Galphai1 from Gbetta/gamma subunit measured using coelenterazine luciferase substrate incubated for 5 mins by BRET assay; type: functional, cell-based, HEK293
Apelin receptor [4] = molecular target: T1, Apelin receptor; assay: Agonist activity at human APJ receptor expressed in HEK293 cells co-expressing Rlucll-beta-arrestin2 assessed as induction of beta-arrestin2 recruitment to receptor incubated for 30 mins by BRET assay; type: functional, cell-based

Row | Structure (SMILES) | Ki (Apelin receptor [1]) | EC50 (Apelin receptor [2]) | EC50 (Apelin receptor [3]) | EC50 (Apelin receptor [4]) | Ki (Apelin receptor [1]; hek293) | EC50 (Apelin receptor [2]; hek293) | EC50 (Apelin receptor [3]; hek293) | EC50 (Apelin receptor [4]; hek293)
1 | CCCC[C@H](NC(=O)[C@@H]1CCCN1C(=O)CNC(=O)[C@H](CCCCN)NC(=O)[C@H](Cc1cnc[nH]1)NC(=O)[C@H](CO)NC(=O)[C@H](CC(C)C)NC(=O)[C@H](CCCNC(=N)N)NC(=O)[C@@H]1CCCN1C(=O)[C@H](CCCNC(=N)N)NC(=O)[C@@H]1CCC(=O)N1)C(=O)N1CCC[C@H]1C(=O)N1C[C@@H](OCc2ccccc2)C[C@@H]1C(=O)O | 6.1 nM | 63 nM | 6.4 nM | 192 nM | – | – | – | –
2 | CCCC[C@H](NC(=O)[C@@H]1CCCN1C(=O)CNC(=O)[C@H](CCCCN)NC(=O)[C@H](Cc1cnc[nH]1)NC(=O)[C@H](CO)NC(=O)[C@H](CC(C)C)NC(=O)[C@H](CCCNC(=N)N)NC(=O)[C@@H]1CCCN1C(=O)[C@H](CCCNC(=N)N)NC(=O)[C@@H]1CCC(=O)N1)C(=O)N1CCC[C@H]1C(=O)N[C@H](Cc1cccc(OCc2ccccc2)c1)C(=O)O | – | – | – | – | 0.46 nM | 45 nM | 3.8 nM | 106 nM
3 | CCCC[C@H](NC(=O)[C@@H]1CCCN1C(=O)CNC(=O)[C@H](CCCCN)NC(=O)[C@H](Cc1cnc[nH]1)NC(=O)[C@H](CO)NC(=O)[C@H](CC(C)C)NC(=O)[C@H](CCCNC(=N)N)NC(=O)[C@@H]1CCCN1C(=O)[C@H](CCCNC(=N)N)NC(=O)[C@@H]1CCC(=O)N1)C(=O)N1CCC[C@H]1C(=O)N[C@H](C(=O)O)C(C)c1ccccc1 (stereo partly specified) | 0.37 nM | 108 nM | 1 nM | 40 nM | – | – | – | –
4 | CCCC[C@H](NC(=O)[C@@H]1CCCN1C(=O)CNC(=O)[C@H](CCCCN)NC(=O)[C@H](Cc1cnc[nH]1)NC(=O)[C@H](CO)NC(=O)[C@H](CC(C)C)NC(=O)[C@H](CCCNC(=N)N)NC(=O)[C@@H]1CCCN1C(=O)[C@H](CCCNC(=N)N)NC(=O)[C@@H]1CCC(=O)N1)C(=O)N1CCC[C@H]1C(=O)N[C@H](Cc1cccc(-c2ccccc2)c1)C(=O)O | – | – | – | – | 0.31 nM | 24 nM | 1.4 nM | 47 nM
5 | CCCC[C@H](NC(=O)[C@@H]1CCCN1C(=O)CNC(=O)[C@H](CCCCN)NC(=O)[C@H](Cc1cnc[nH]1)NC(=O)[C@H](CO)NC(=O)[C@H](CC(C)C)NC(=O)[C@H](CCCNC(=N)N)NC(=O)[C@@H]1CCCN1C(=O)[C@H](CCCNC(=N)N)NC(=O)[C@@H]1CCC(=O)N1)C(=O)N1CCC[C@H]1C(=O)N[C@H](Cc1cc(C2CCCC2)c(O)c(C2CCCC2)c1)C(=O)O | 1.6 nM | 111 nM | 16 nM | 361 nM | – | – | – | –
6 | CCCC[C@H](NC(=O)[C@@H]1CCCN1C(=O)CNC(=O)[C@H](CCCCN)NC(=O)[C@H](Cc1cnc[nH]1)NC(=O)[C@H](CO)NC(=O)[C@H](CC(C)C)NC(=O)[C@H](CCCNC(=N)N)NC(=O)[C@@H]1CCCN1C(=O)[C@H](CCCNC(=N)N)NC(=O)[C@@H]1CCC(=O)N1)C(=O)N1Cc2ccccc2C[C@@H]1C(=O)N[C@@H](Cc1ccccc1)C(=O)O | 9.7 nM | 67 nM | 9.6 nM | 142 nM | – | – | – | –
7 | CCCC[C@H](NC(=O)[C@@H]1CCCN1C(=O)CNC(=O)[C@H](CCCCN)NC(=O)[C@H](Cc1cnc[nH]1)NC(=O)[C@H](CO)NC(=O)[C@H](CC(C)C)NC(=O)[C@H](CCCNC(=N)N)NC(=O)[C@@H]1CCCN1C(=O)[C@H](CCCNC(=N)N)NC(=O)[C@@H]1CCC(=O)N1)C(=O)N1CCC[C@H]1C(=O)N[C@H](Cc1ccc(-c2ccccc2)cc1)C(=O)O | – | – | – | – | 0.35 nM | 21 nM | 2.1 nM | 64 nM
8 | CCCC[C@H](NC(=O)[C@@H]1CCCN1C(=O)CNC(=O)[C@H](CCCCN)NC(=O)[C@H](Cc1cnc[nH]1)NC(=O)[C@H](CO)NC(=O)[C@H](CC(C)C)NC(=O)[C@H](CCCNC(=N)N)NC(=O)[C@@H]1CCCN1C(=O)[C@H](CCCNC(=N)N)NC(=O)[C@@H]1CCC(=O)N1)C(=O)N1CCC[C@H]1C(=O)N[C@H]1Cc2c(ccc3ccccc23)CN(CC(=O)O)C1=O | 1.7 nM | 74 nM | 6.4 nM | 221 nM | – | – | – | –
9 | CCCC[C@H](NC(=O)[C@@H]1CCCN1C(=O)CNC(=O)[C@H](CCCCN)NC(=O)[C@H](Cc1cnc[nH]1)NC(=O)[C@H](CO)NC(=O)[C@H](CC(C)C)NC(=O)[C@H](CCCNC(=N)N)NC(=O)[C@@H]1CCCN1C(=O)[C@H](CCCNC(=N)N)NC(=O)[C@@H]1CCC(=O)N1)C(=O)N1CCC[C@H]1C(=O)N[C@@](C)(Cc1ccc(OCc2ccccc2)cc1)C(=O)O | 1 nM | 11 nM | 19 nM | 571 nM | – | – | – | –
